The values that follow come from publication PMC12073189, “Synthesis and Evaluation of a Novel Zuranolone Analog with High GABAA Receptor PAM Activity and Excellent Pharmacokinetic Profiles” (Molecules, 2025).

Where two headings read alike, the source gives them in different places.

Data set [1] is described as follows: Liver microsome metabolic stability (HLM). Type of data set: in vitro ADME, human. More on the design: microsomal CLint at 1 μmol/L: unit not given here. The note with it: for half-life at 1 μmol/L: read-out: HLM T1/2. As for the experimental part: (§1) We quantified S1–S15 and Zuranolone using a UPLC-MS/MS (Agilent 1290 Infinity II UHPLC (Agilent Technologies, Santa Clara, CA, USA) coupled with a QTRAP 5500 MS/MS (ESI source) (SCIEX, Redwood City, CA, USA for MS/MS). The method assessed the content level of S9 and Zuranolone in microsome metabolism and in rat brain tissue and plasma. An ACQUITY UPLC Peptide BEH C18 column (Waters; 50 × 2.1 mm, 1.7 μm; 60 °C; Waters Corporation, Milford, MA, USA) was used with a mobile phase of 0.02% propionic acid in water (A) and acetonitrile (B). The gradient elution of the mobile phase B is carried out as follows: it is 10% from 0 to 0.5 min, 90% from 0.8 to 2.5 min, and 10% from 2.8 to 3.5 min, with a flow rate of 0.40 mL/min. Quantitative analysis was performed on a QTRAP 5500 MS (SCIEX, Redwood City, CA, USA) in positive ionization mode with MRM (multiple reaction monitoring), using progesterone-d9 as the internal standard. MRM transitions and parameters were optimized for each analyte, with collision energies of 25 V (S1–S15), 23 V (Zuranolone), and 30 V (IS), and declustering potentials of 80 V (S1–S15), 90 V (Zuranolone), and 180 V (IS). Other conditions were as follows: curtain gas 10 psi, collision gas ‘medium’, ion spray voltage 5500 V, temperature 500 °C, and ionization source gases 1 and 2 at 50 psi.
To evaluate the metabolic stability of compounds S1–S15 and Zuranolone in RLM and HLM, we designed the following in vitro liver microsome metabolism assay protocol. In a 1.5 mL centrifuge tube, sequentially add 173 μL of PBS (0.1 M, pH 7.4), 5 μL of liver microsomes (20 mg/mL), and 2 μL of the test compound (100 μmol/L). After thorough mixing, pre-incubate at 37 °C for 10 min. Subsequently, add 20 μL of NADPH to initiate the metabolism, with a parallel control without NADPH, to validate the background signal. Samples were collected at 0, 5, 10, 20, 30, and 60 min post-reaction initiation. At each designated time point, we quenched the reaction with ice-cold acetonitrile (600 μL). After centrifuging the mixture, we analyzed the supernatant using UPLC-MS/MS. For data analysis, the compound concentration at 0 min was set as 100%, with concentrations at subsequent time points expressed as residual percentages relative to the initial value, and the in vitro half-life (T1/2) and intrinsic clearance (CLint) were calculated.
Background: Liver microsomes are vesicles of endoplasmic reticulum, rich in cytochrome P450 enzymes.

A further data set concerns loss of righting reflex. The experiment in a line: Loss of righting reflex (LORR) test. Type of data set: in vivo, rat. The note with it: rats; for LORR threshold dose: intragastric. As for the experimental part:
We randomly assigned rats into 6 groups (n = 10): Zuranolone groups at doses of 9.8, 15.6, and 19.5 μmol/kg and S9 groups at doses of 38.9, 48.6, and 58.3 μmol/kg. The number of animals showing LORR, defined as the inability to turn over within 30 s while in the supine position, was recorded within 4 h following intragastric administration of the test drugs or vehicle.

The nature of data set [2]: Plasma pharmacokinetic study in rats. Type of data set: in vivo, rat. The following applies: for AUC(0-t) / C0 / half-life / Cmax / Tmax: rat plasma, n = 6; for bioavailability / Tmax: rat, plasma; for bioavailability: oral, 24.4 μmol/kg, i.g. 24.4 vs i.v. 6.1 μmol/kg, read-out: F (oral absolute bioavailability). The procedure: as §1
Zuranolone was solubilized in 5% DMSO with solutol HS 15 in saline. S9 was solubilized in 10% DMSA with 30% SBECD (Zibo Qianhui Biological Technology Co., Ltd., Zibo, China) in saline. After fasting for 12 h, rats (n = 6 per group) were administered Zuranolone and S9 intragastrically (i.g.) at a dose of 24.4 μmol/kg, and intravenously (i.v.) at 6.1 μmol/kg. Blood samples (200 μL) were collected into 1.5 mL tubes containing heparin at 15 min, 30 min, 1, 2, 3, 4, 6, 8, 12, 24, 48, and 96 h after i.g. or at 5, 15, 30 min, and 1, 2, 3, 4, 6, 8, 12, 24, 48, 96 h after i.v. Plasma was separated by centrifugation for 5 min (8000 rpm, 4 °C) and stored at −80 °C immediately.
Experimental data were analyzed by GraphPad Prism software 9.0 and presented as means ± SD. Statistical differences were determined by one-way ANOVA followed by Dunnett’s post-hoc test, with p < 0.05 considered statistically significant. Main pharmacokinetic parameters were calculated using Phoenix WinNonlin 8.1 (non-compartmental model), and the absolute bioavailability of S9 was determined by the following formula: (AUC i.g. (0–t) × dose i.v.)/(AUC i.v. (0–t) × dose i.g.) × 100%.

A further data set concerns the target T1, α1β2γ2 GABAA receptor (Homo sapiens, UniProt P14867+P47870).
T1 construct: expressed in transfected cells
As to the kind of experiment: Whole-cell electrophysiology of GABA-evoked currents, LTK cells. Type of data set: cell-based. The following applies: for Emax: current induced by 1 μmol/L GABA = 100%. The procedure: The α1β2γ2 and α4β3δ GABAA receptor subtypes, representing synaptic and extrasynaptic subunit compositions in neurons, are widely utilized for screening new NAS drugs. In this study, a preliminary SAR study was conducted on a series of Zuranolone analogs using the LogP values predicted by ADMETlab3.0 software, recombinant human GABAA receptor cell lines, and in vitro liver microsome stability assays. The results are summarized in Table 1, Table 2, and Table 3, respectively.
The effects of Zuranolone and synthetic analogs on GABA-evoked currents were assessed in LTK cells stably expressing α1β2γ2 GABAA receptor subunits (n = 3) or CHO cells transiently expressing α4β3δ receptors (n = 3). Whole-cell mode recordings were conducted using the HEKA EPC-10 amplifier and analyzed with PatchMaster software (version 2x90, HEKA Elektronik, Lambrecht, Germany). High-throughput whole-cell recordings were performed using the Q-Patch method from Sophion. Test substances were dissolved in DMSO (dimethyl sulfoxide) to prepare 10 mmol/L stock solutions, then diluted with perfusion bath solution to concentrations ranging from 0.01 to 10 μmol/L. In this experiment, the effects of Zuranolone and its synthetic analogs on GABA-induced currents were examined in the presence of a submaximal agonist concentration at 1 μmol/L GABA (EC20). Cells were pre-incubated with increasing doses of test substances for 30 s, followed by 2 s of GABA stimulation, and currents were recorded. The maximum efficacy (Emax) of the GABAA receptor is expressed with the current induced by 1 μmol/L GABA taken as 100%, and the percentage after treatment with the test compound is calculated. The EC50 values are determined by fitting the three concentration–response curves recorded from three cells.

Where [3] appears, read: iv, 6.1 umol/kg, i.v. 6.1 μmol/kg.
[4] abbreviates: po, 24.4 umol/kg, i.g. 24.4 μmol/kg.

T1 sequence (P14867 28-456): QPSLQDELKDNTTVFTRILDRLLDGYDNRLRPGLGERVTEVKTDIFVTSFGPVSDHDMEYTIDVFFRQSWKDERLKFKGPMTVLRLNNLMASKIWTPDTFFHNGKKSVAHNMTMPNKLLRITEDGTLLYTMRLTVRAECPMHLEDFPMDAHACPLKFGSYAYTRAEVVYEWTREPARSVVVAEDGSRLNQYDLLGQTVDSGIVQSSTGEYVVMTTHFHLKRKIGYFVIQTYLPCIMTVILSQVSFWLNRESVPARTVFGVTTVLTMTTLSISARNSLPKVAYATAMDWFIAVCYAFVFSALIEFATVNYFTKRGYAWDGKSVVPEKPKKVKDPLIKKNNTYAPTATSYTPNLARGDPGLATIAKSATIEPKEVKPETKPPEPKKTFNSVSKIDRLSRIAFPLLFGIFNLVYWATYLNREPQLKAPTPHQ
T1 sequence (P47870 25-512 limits assumed): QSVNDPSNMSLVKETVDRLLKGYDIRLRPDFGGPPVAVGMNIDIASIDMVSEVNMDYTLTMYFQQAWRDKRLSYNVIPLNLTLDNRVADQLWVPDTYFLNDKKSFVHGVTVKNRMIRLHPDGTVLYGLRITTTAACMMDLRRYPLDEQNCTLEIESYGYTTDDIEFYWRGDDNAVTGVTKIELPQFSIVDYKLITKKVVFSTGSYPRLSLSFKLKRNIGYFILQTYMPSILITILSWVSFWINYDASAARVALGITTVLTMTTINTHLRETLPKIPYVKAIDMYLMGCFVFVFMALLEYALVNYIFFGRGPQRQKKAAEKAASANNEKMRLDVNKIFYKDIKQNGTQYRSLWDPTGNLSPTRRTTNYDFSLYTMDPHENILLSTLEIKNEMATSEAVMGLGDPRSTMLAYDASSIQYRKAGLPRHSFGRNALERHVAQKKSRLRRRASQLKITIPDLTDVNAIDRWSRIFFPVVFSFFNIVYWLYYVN
T1 sequence (P18507 40-475 partner): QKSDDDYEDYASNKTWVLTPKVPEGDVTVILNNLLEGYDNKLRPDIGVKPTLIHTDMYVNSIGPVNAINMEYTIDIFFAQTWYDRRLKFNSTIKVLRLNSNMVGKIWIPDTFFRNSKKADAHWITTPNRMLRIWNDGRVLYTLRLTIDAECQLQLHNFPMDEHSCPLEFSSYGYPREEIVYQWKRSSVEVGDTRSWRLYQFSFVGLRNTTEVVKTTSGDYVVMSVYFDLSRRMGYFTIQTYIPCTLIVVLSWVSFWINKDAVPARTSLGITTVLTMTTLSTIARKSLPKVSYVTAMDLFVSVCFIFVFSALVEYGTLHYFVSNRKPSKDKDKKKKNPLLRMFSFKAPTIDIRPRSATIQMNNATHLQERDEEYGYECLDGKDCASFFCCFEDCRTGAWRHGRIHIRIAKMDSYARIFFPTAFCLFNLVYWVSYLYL

Broadly, the AUC(0-t) is exposure summed from dosing to a finite time, without extrapolation to infinity. Usually Cmax stands for the maximum level reached in the sampled fluid or tissue. One may read the bioavailability as dose-corrected exposure relative to a reference, in per cent. Broadly, the Tmax is the time from dosing to the highest level. Broadly, the EC50 is the concentration that produces a half-maximal response. Usually Emax stands for the greatest response seen or fitted, relative to the assay's reference. On to `C[C@@]1(O)CC[C@H]2[C@H](CC[C@@H]3[C@@H]2CC[C@]2(C)[C@@H](C(=O)Cn4cc(C#N)cn4)CC[C@@H]32)C1` [Zuranolone], for which the half-life at 1 μmol/L in data set [1] (pH 7.4, human liver microsomes) is 2.07 h. Besides, the “Latency to LORR” value with loss of righting reflex (i.g. 15.6 μmol/kg) amounted to 35 min. Moreover, the “Latency to LORR” value in the data set with loss of righting reflex (i.g. 19.5 μmol/kg) is listed as 30 min. In addition, the LORR threshold dose in the data set with loss of righting reflex was 9.8 µmol/kg. In addition, in data set [2] (setting [3]), the AUC(0-t) amounted to 5.18 ± 1.73 µM·h, the C0 is 3.43 ± 1.74 µM and the half-life was 2.5 ± 1.3 h. For the same molecule, in data set [2] (setting [4]), the AUC(0-t) worked out at 12 µM·h, the maximum concentration (Cmax) is 2.28 ± 0.554 µM, the half-life was 3.8 ± 1.7 h and the Tmax is approximately 1.2 h. In addition, in data set [2] (rats), the bioavailability was 57.7%. At α1β2γ2 GABAA receptor, this molecule displayed an EC50 of 123 ± 20 nM. Besides, on α1β2γ2 GABAA receptor (LTK cells, n = 3), the Emax amounted to 894 ± 40%.

Regarding `C[C@@]1(O)CC[C@H]2[C@H](CC[C@@H]3[C@@H]2CC[C@]2(C)[C@@H](C(=O)Cn4cnn(-c5ccnc(OCC(F)(F)F)c5)c4=O)CC[C@@H]32)C1` [S9], in data set [1] (HLM), the “fold longer T1/2 than Zuranolone” value turned out to be 1.2 fold and the “fold lower CLint than Zuranolone” value is 1.2 fold. Besides, in data set [1] (pH 7.4, human liver microsomes), the microsomal CLint at 1 μmol/L was found to be 9000 and the half-life at 1 μmol/L came to 2.57 h. Moreover, the “Latency to LORR” value in the data set on loss of righting reflex (i.g. 48.6 μmol/kg) is 68 min. Further, the “Latency to LORR” value in the data set on loss of righting reflex (i.g. 58.3 μmol/kg) was 59 min. Besides, the LORR threshold dose in the data set on loss of righting reflex amounted to 38.9 µmol/kg. Besides, in data set [2] (S28 previously reported ref 25), the “increase in AUC compared to S28” value is “over 2 fold” and the “increase in T1/2 compared to S28” value is given as “over 2 fold”. In data set [2] (setting [3]), this molecule had an AUC(0-t) of 24.2 µM·h, a C0 of 2.86 ± 0.223 µM and a half-life of 16.4 ± 0.56 h. For the same molecule, in data set [2] (setting [4]), the exposure AUC(0-t) was 80.4 µM·h, the Cmax is 3.6 ± 0.541 µM, the half-life was 19.8 ± 1.5 h and the Tmax was approximately 3.7 h. Besides, in data set [2] (rats), the bioavailability came to 82.9%. Moreover, in data set [2] (rats, i.g. 24.4 μmol/kg), the “AUC0–t as fold of Zuranolone” value is “approximately 6.7 fold” and the “T1/2 as fold of Zuranolone” value is recorded as “approximately 5.2 fold”. In addition, in data set [2] (rats, i.v. 6.1 μmol/kg), the “AUC0–t as fold of Zuranolone” value is “approximately 4.7 fold” and the “T1/2 as fold of Zuranolone” value is recorded as “approximately 6.6 fold”. Besides, in data set [2] (rats, route not given), the “AUC higher than Zuranolone” value is 6 fold and the “plasma T1/2 longer than Zuranolone” value is recorded as 5 fold. Also, the EC50 on α1β2γ2 GABAA receptor (LTK cells, 1 μmol/L GABA (EC20), n = 3, read-out: α1β2γ2 EC50) was 50 ± 10 nM. Also, at α1β2γ2 GABAA receptor (LTK cells, n = 3), the Emax stood at 675 ± 163%. The “enhanced GABAA receptor potency compared to S28” value at α1β2γ2 GABAA receptor (S28 previously reported ref 25) is “over 1 fold”. Also, on α1β2γ2 GABAA receptor (synaptic GABAA receptors), the “efficacy as % of that of Zuranolone” value worked out at 76% and the “potency as % of that of Zuranolone” value worked out at 250%. On α1β2γ2 GABAA receptor (synaptic and extrasynaptic GABAA receptors, not separated), the “efficacy as % of that of Zuranolone” value is on record as “approximately 75%”.
